Test system: MV-4-11 cells
Experiment: Gene expression microarray analysis (Affymetrix PrimeView) and GSEA
Assay type: cell-based, human
Parameters: RFU PODN (11730768_x_at) / Fold change /veh PODN (11730768_x_at) / RFU LINC00158 (11744669_a_at) / Fold change /veh LINC00158 (11744669_a_at) / RFU DUSP10 (11751237_a_at) / Fold change /veh DUSP10 (11751237_a_at) / RFU ID3 (11757404_x_at) / Fold change /veh ID3 (11757404_x_at) / RFU PLEKHG5 (11737974_s_at) / Fold change /veh PLEKHG5 (11737974_s_at) / RFU LRRC4B (11730491_at) / Fold change /veh LRRC4B (11730491_at) / RFU GIMAP4 (11747438_a_at) / Fold change /veh GIMAP4 (11747438_a_at) / RFU KRT8 (11758183_x_at) / Fold change /veh KRT8 (11758183_x_at) / RFU CNN1 (11734310_a_at) / Fold change /veh CNN1 (11734310_a_at) / RFU VPS37D (11726825_at) / Fold change /veh VPS37D (11726825_at) / RFU C10orf10 (11716522_x_at) / Fold change /veh C10orf10 (11716522_x_at) / RFU KIR2DL2 /// KIR2DL4 /// KIR2DL5A /// KIR2DL5B /// KIR2DS1 /// KIR2DS2 /// KIR2DS3 /// KIR2DS4 /// KIR3DL3 /// KIR3DL3 /// KIR3DS1 (11738374_at) / Fold change /veh KIR2DL2 /// KIR2DL4 /// KIR2DL5A /// KIR2DL5B /// KIR2DS1 /// KIR2DS2 /// KIR2DS3 /// KIR2DS4 /// KIR3DL3 /// KIR3DL3 /// KIR3DS1 (11738374_at) / RFU C1QL1 (11718748_at) / Fold change /veh C1QL1 (11718748_at) / RFU TMPRSS4 (11747572_a_at) / Fold change /veh TMPRSS4 (11747572_a_at) / RFU HAMP (11756126_x_at) / Fold change /veh HAMP (11756126_x_at) / RFU RNFT2 (11725882_a_at) / Fold change /veh RNFT2 (11725882_a_at) / RFU NR4A2 (11747474_a_at) / Fold change /veh NR4A2 (11747474_a_at) / RFU ABCC12 (11746883_a_at) / Fold change /veh ABCC12 (11746883_a_at) / RFU TMEM136 (11760407_x_at) / Fold change /veh TMEM136 (11760407_x_at) / RFU CLDN22 /// WWC2 (11732394_at) / Fold change /veh CLDN22 /// WWC2 (11732394_at) / RFU HLA-DPB1 (11760878_x_at) / Fold change /veh HLA-DPB1 (11760878_x_at) / RFU SPINT1 (11716480_a_at) / Fold change /veh SPINT1 (11716480_a_at) / RFU GAP43 (11754022_s_at) / Fold change /veh GAP43 (11754022_s_at) / RFU A4GNT (11735810_at) / Fold change /veh A4GNT (11735810_at) / RFU PRB3 (11715151_x_at) / Fold change /veh PRB3 (11715151_x_at) / RFU TUBB4B (11761932_at) / Fold change /veh TUBB4B (11761932_at) / RFU CAPN14 (11732068_a_at) / Fold change /veh CAPN14 (11732068_a_at) / RFU TMCC2 (11721928_a_at) / Fold change /veh TMCC2 (11721928_a_at) / RFU IRGQ (11745062_a_at) / Fold change /veh IRGQ (11745062_a_at) / RFU FAM174B (11720279_a_at) / Fold change /veh FAM174B (11720279_a_at) / RFU TMPRSS4 (11748680_a_at) / Fold change /veh TMPRSS4 (11748680_a_at) / RFU FAM212B (11763350_a_at) / Fold change /veh FAM212B (11763350_a_at) / RFU PLEKHG5 (11743358_a_at) / Fold change /veh PLEKHG5 (11743358_a_at) / RFU ZSCAN30 (11745921_a_at) / Fold change /veh ZSCAN30 (11745921_a_at) / RFU CMKLR1 (11741424_a_at) / Fold change /veh CMKLR1 (11741424_a_at) / RFU LOC101060620 /// MAPK8IP1 (11723275_at) / Fold change /veh LOC101060620 /// MAPK8IP1 (11723275_at) / RFU SPTSSB (11747773_x_at) / Fold change /veh SPTSSB (11747773_x_at) / RFU PRSS12 (11739890_at) / Fold change /veh PRSS12 (11739890_at) / RFU BIN1 (11741810_x_at) / Fold change /veh BIN1 (11741810_x_at) / RFU WNT11 (11732464_a_at) / Fold change /veh WNT11 (11732464_a_at) / RFU C10orf10 (11716521_a_at) / Fold change /veh C10orf10 (11716521_a_at) / RFU C5orf56 (11738089_at) / Fold change /veh C5orf56 (11738089_at) / RFU CYB561 (11721691_x_at) / Fold change /veh CYB561 (11721691_x_at) / RFU ANKRD19P (11752326_a_at) / Fold change /veh ANKRD19P (11752326_a_at) / RFU OR2T12 /// OR2T33 /// OR2T8 (11738714_s_at) / Fold change /veh OR2T12 /// OR2T33 /// OR2T8 (11738714_s_at) / RFU VCAN (11748164_a_at) / Fold change /veh VCAN (11748164_a_at) / RFU JSRP1 (11732532_at) / Fold change /veh JSRP1 (11732532_at) / RFU KRTAP10-11 (11738290_x_at) / Fold change /veh KRTAP10-11 (11738290_x_at) / RFU MYO3A (11730013_a_at) / Fold change /veh MYO3A (11730013_a_at) / RFU EBF3 (11725865_a_at) / Fold change /veh EBF3 (11725865_a_at) / RFU CAMK2N1 (11719241_x_at) / Fold change /veh CAMK2N1 (11719241_x_at) / RFU C5orf56 (11738088_a_at) / Fold change /veh C5orf56 (11738088_a_at) / RFU OLFML3 (11715873_a_at) / Fold change /veh OLFML3 (11715873_a_at) / RFU LOC100653217 /// NTM (11731650_a_at) / Fold change /veh LOC100653217 /// NTM (11731650_a_at) / RFU MAPK11 (11762145_a_at) / Fold change /veh MAPK11 (11762145_a_at) / RFU FIZ1 (11724087_x_at) / Fold change /veh FIZ1 (11724087_x_at) / RFU OASL (11726364_x_at) / Fold change /veh OASL (11726364_x_at) / RFU SOX15 (11748057_x_at) / Fold change /veh SOX15 (11748057_x_at) / RFU CD79A (11719716_a_at) / Fold change /veh CD79A (11719716_a_at) / RFU HIST1H1D (11736915_at) / Fold change /veh HIST1H1D (11736915_at) / RFU CASKIN2 (11723855_a_at) / Fold change /veh CASKIN2 (11723855_a_at) / RFU LOC730098 (11760151_x_at) / Fold change /veh LOC730098 (11760151_x_at) / RFU OR4N2 (11742367_at) / Fold change /veh OR4N2 (11742367_at) / RFU PRRT2 (11749266_a_at) / Fold change /veh PRRT2 (11749266_a_at) / RFU SNX32 (11753110_a_at) / Fold change /veh SNX32 (11753110_a_at) / RFU CDHR5 (11726645_a_at) / Fold change /veh CDHR5 (11726645_a_at) / RFU RCAN1 (11760418_a_at) / Fold change /veh RCAN1 (11760418_a_at) / RFU FAM167A (11723789_a_at) / Fold change /veh FAM167A (11723789_a_at) / RFU FAM26E (11764081_at) / Fold change /veh FAM26E (11764081_at) / RFU ISYNA1 (11749810_s_at) / Fold change /veh ISYNA1 (11749810_s_at) / RFU ACY1 (11761880_at) / Fold change /veh ACY1 (11761880_at) / RFU 11764098_at / Fold change /veh 11764098_at / RFU SAMD14 (11745864_x_at) / Fold change /veh SAMD14 (11745864_x_at) / RFU NPB (11741838_a_at) / Fold change /veh NPB (11741838_a_at) / RFU TMPRSS6 (11731388_a_at) / Fold change /veh TMPRSS6 (11731388_a_at) / RFU KRTAP10-2 (11738614_at) / Fold change /veh KRTAP10-2 (11738614_at) / RFU ARHGAP8 /// PRR5-ARHGAP8 (11727945_x_at) / Fold change /veh ARHGAP8 /// PRR5-ARHGAP8 (11727945_x_at) / RFU KRTAP5-7 /// NADSYN1 (11734609_at) / Fold change /veh KRTAP5-7 /// NADSYN1 (11734609_at) / RFU RASL12 (11751679_a_at) / Fold change /veh RASL12 (11751679_a_at) / RFU CDKN2B (11736163_a_at) / Fold change /veh CDKN2B (11736163_a_at) / RFU PRF1 (11729649_at) / Fold change /veh PRF1 (11729649_at) / RFU, ZNF638 /// ZNF638-IT1 / Fold change vs veh, ZNF638 /// ZNF638-IT1 / RFU, PANK3 / Fold change vs veh, PANK3 / RFU, SH3YL1 / Fold change vs veh, SH3YL1 / RFU, ZEB2 / Fold change vs veh, ZEB2 / RFU, NRIP1 / Fold change vs veh, NRIP1 / RFU, PTTG1IP / Fold change vs veh, PTTG1IP / RFU, CAPN2 / Fold change vs veh, CAPN2 / RFU, MED14 / Fold change vs veh, MED14 / RFU, SNORA58 / Fold change vs veh, SNORA58 / RFU, C1orf63 / Fold change vs veh, C1orf63 / RFU, LRRFIP1 / Fold change vs veh, LRRFIP1 / RFU, NDUFAF7 / Fold change vs veh, NDUFAF7 / RFU, SLC12A2 / Fold change vs veh, SLC12A2 / RFU, IBTK / Fold change vs veh, IBTK / RFU, ESF1 / Fold change vs veh, ESF1 / Fold change vs veh, TMEM50B / RFU, TAOK1 / Fold change vs veh, TAOK1 / RFU, ACBD3 / Fold change vs veh, ACBD3 / RFU, TMA16 / Fold change vs veh, TMA16 / RFU, RWDD3 / Fold change vs veh, RWDD3 / RFU, BCAT1 / Fold change vs veh, BCAT1 / RFU, EDEM3 / Fold change vs veh, EDEM3 / RFU, TMEM33 / Fold change vs veh, TMEM33 / RFU, WDR75 / Fold change vs veh, WDR75 / RFU, AHCTF1 / Fold change vs veh, AHCTF1 / RFU, TFRC / Fold change vs veh, TFRC / RFU, ZDHHC17 / Fold change vs veh, ZDHHC17 / RFU, NOM1 / Fold change vs veh, NOM1 / RFU, ARL8B / Fold change vs veh, ARL8B / RFU, ZBTB11 / Fold change vs veh, ZBTB11 / RFU, TAMM41 / Fold change vs veh, TAMM41 / RFU, KIAA1704 /// LOC100996395 / Fold change vs veh, KIAA1704 /// LOC100996395 / RFU, ING1 / Fold change vs veh, ING1 / RFU, TRMT61B / Fold change vs veh, TRMT61B / RFU, FUBP3 / Fold change vs veh, FUBP3 / RFU, TP53 / Fold change vs veh, TP53 / RFU, TNKS2 / Fold change vs veh, TNKS2 / RFU, ZFP14 / Fold change vs veh, ZFP14 / RFU, ACTR2 / Fold change vs veh, ACTR2 / RFU, PPP3R1 / Fold change vs veh, PPP3R1 / RFU, PIK3R1 / Fold change vs veh, PIK3R1 / RFU, HNRNPA1 / Fold change vs veh, HNRNPA1 / RFU, RNF170 / Fold change vs veh, RNF170 / RFU, ZNF28 / Fold change vs veh, ZNF28 / RFU, RNGTT / Fold change vs veh, RNGTT / RFU, OGT / Fold change vs veh, OGT / RFU, BRD1 / Fold change vs veh, BRD1 / RFU, MARS / Fold change vs veh, MARS / RFU, ZNF655 / Fold change vs veh, ZNF655 / RFU, FAHD1 / Fold change vs veh, FAHD1 / RFU, BDP1 / Fold change vs veh, BDP1 / RFU, LRRCC1 / Fold change vs veh, LRRCC1 / RFU, ARID1A / Fold change vs veh, ARID1A / RFU, ZNF146 / Fold change vs veh, ZNF146 / RFU, ZNF330 / Fold change vs veh, ZNF330 / RFU, GPN3 / Fold change vs veh, GPN3 / RFU, C9orf123 / Fold change vs veh, C9orf123 / RFU, N4BP2L2 / Fold change vs veh, N4BP2L2 / RFU, ARFIP1 / Fold change vs veh, ARFIP1 / RFU, FAM179B / Fold change vs veh, FAM179B / RFU, BCL10 / Fold change vs veh, BCL10 / RFU, UHRF1BP1L / Fold change vs veh, UHRF1BP1L / RFU, BET1 / Fold change vs veh, BET1 / RFU, CNOT2 / Fold change vs veh, CNOT2 / RFU, ZNF268 / Fold change vs veh, ZNF268 / Fold change vs veh, ZNF507 / RFU, DGCR2 / Fold change vs veh, DGCR2 / RFU, WDSUB1 / Fold change vs veh, WDSUB1 / Fold change vs veh, HSP90B1 /// MIR3652 / RFU, ADSS / Fold change vs veh, ADSS / RFU, GK / Fold change vs veh, GK / RFU, ZNF148 / Fold change vs veh, ZNF148 / RFU, TAF9 / Fold change vs veh, TAF9 / RFU, SLC1A5 / Fold change vs veh, SLC1A5 / RFU, SLMO2 / Fold change vs veh, SLMO2 / RFU, ABCC4 / Fold change vs veh, ABCC4 / RFU, LOC101060439 /// RAP1B / Fold change vs veh, LOC101060439 /// RAP1B / RFU, RFX7 / Fold change vs veh, RFX7 / RFU, GTPBP10 / Fold change vs veh, GTPBP10 / RFU, CNEP1R1 / Fold change vs veh, CNEP1R1 / RFU, BIVM-ERCC5 /// ERCC5 / Fold change vs veh, BIVM-ERCC5 /// ERCC5 / RFU, ILF3 / Fold change vs veh, ILF3 / RFU 11762660_at / Fold change /veh 11762660_at / RFU VCAN (11757783_s_at) / Fold change /veh VCAN (11757783_s_at) / RFU DDX43 (11728927_at) / Fold change /veh DDX43 (11728927_at) / RFU KRT8 (11758188_x_at) / Fold change /veh KRT8 (11758188_x_at) / RFU NKD1 (11759106_at) / Fold change /veh NKD1 (11759106_at) / RFU SRD5A1 (11742802_a_at) / Fold change /veh SRD5A1 (11742802_a_at) / RFU TPSAB1 /// TPSB2 (11721975_s_at) / Fold change /veh TPSAB1 /// TPSB2 (11721975_s_at) / RFU GSTM3 (11746129_a_at) / Fold change /veh GSTM3 (11746129_a_at) / RFU IL23R (11737362_x_at) / Fold change /veh IL23R (11737362_x_at) / RFU TMEM51 (11727254_a_at) / Fold change /veh TMEM51 (11727254_a_at) / RFU PIWIL2 (11732686_x_at) / Fold change /veh PIWIL2 (11732686_x_at) / RFU ORM1 (11744905_x_at) / Fold change /veh ORM1 (11744905_x_at) / RFU CCDC152 (11743942_at) / Fold change /veh CCDC152 (11743942_at) / RFU ECM1 (11717891_a_at) / Fold change /veh ECM1 (11717891_a_at) / RFU IL23R (11748794_a_at) / Fold change /veh IL23R (11748794_a_at) / RFU TNFAIP8L3 (11732012_x_at) / Fold change /veh TNFAIP8L3 (11732012_x_at) / RFU MBOAT4 (11741988_at) / Fold change /veh MBOAT4 (11741988_at) / RFU 11764193_at / Fold change /veh 11764193_at / RFU TMEM53 (11763286_at) / Fold change /veh TMEM53 (11763286_at) / RFU MAGEB2 (11727129_at) / Fold change /veh MAGEB2 (11727129_at) / RFU TMEM200A (11744735_a_at) / Fold change /veh TMEM200A (11744735_a_at) / RFU CCDC152 (11751479_a_at) / Fold change /veh CCDC152 (11751479_a_at) / RFU FAM211A (11726209_a_at) / Fold change /veh FAM211A (11726209_a_at) / RFU RGS16 (11746705_a_at) / Fold change /veh RGS16 (11746705_a_at) / RFU VCAN (11755009_s_at) / Fold change /veh VCAN (11755009_s_at) / RFU RHOB (11743442_s_at) / Fold change /veh RHOB (11743442_s_at) / RFU RGS16 (11720943_a_at) / Fold change /veh RGS16 (11720943_a_at) / RFU RGS16 (11720944_at) / Fold change /veh RGS16 (11720944_at) / RFU, VPS4B / Fold change vs veh, VPS4B / RFU, CREB1 / Fold change vs veh, CREB1 / RFU, DNAJC13 / Fold change vs veh, DNAJC13 / RFU, GNAQ / Fold change vs veh, GNAQ / RFU, CDK5R1 / Fold change vs veh, CDK5R1 / RFU, ZRANB3 / Fold change vs veh, ZRANB3 / RFU, CUL4A / Fold change vs veh, CUL4A / RFU, CCNY / Fold change vs veh, CCNY / RFU, UFL1 / Fold change vs veh, UFL1 / RFU, COG3 / Fold change vs veh, COG3 / RFU, DIAPH2 / Fold change vs veh, DIAPH2 / RFU, SKA2 / Fold change vs veh, SKA2 / RFU, AFF3 / Fold change vs veh, AFF3 / RFU, LMF1 / Fold change vs veh, LMF1 / RFU, IPO11 / Fold change vs veh, IPO11 / RFU, DFFB / Fold change vs veh, DFFB / RFU, FOXP1 / Fold change vs veh, FOXP1 / RFU, CARD8 / Fold change vs veh, CARD8 / RFU, STRN3 / Fold change vs veh, STRN3 / RFU, ADK / Fold change vs veh, ADK / RFU, RASSF2 / Fold change vs veh, RASSF2 / RFU, WIPF1 / Fold change vs veh, WIPF1 / RFU, LARP1B / Fold change vs veh, LARP1B / RFU, RASA1 / Fold change vs veh, RASA1 / RFU, RB1 / Fold change vs veh, RB1 / RFU, PPFIA1 / Fold change vs veh, PPFIA1 / RFU, MAT2A / Fold change vs veh, MAT2A / RFU, CCT5 / Fold change vs veh, CCT5 / RFU, WDR92 / Fold change vs veh, WDR92 / RFU, CUX1 / Fold change vs veh, CUX1 / RFU, TTC7A / Fold change vs veh, TTC7A / RFU, TMEM135 / Fold change vs veh, TMEM135 / RFU, DEPTOR / Fold change vs veh, DEPTOR / RFU, CPM / Fold change vs veh, CPM / RFU, DNAJB6 / Fold change vs veh, DNAJB6 / RFU, CACNA2D3 / Fold change vs veh, CACNA2D3 / RFU, DTX4 / Fold change vs veh, DTX4 / RFU, TFCP2 / Fold change vs veh, TFCP2 / RFU, GMCL1 /// GMCL1P1 / Fold change vs veh, GMCL1 /// GMCL1P1 / RFU, AEBP2 / Fold change vs veh, AEBP2 / RFU, SNHG1 /// SNORD22 /// SNORD25 /// SNORD26 /// SNORD27 /// SNORD28 /// SNORD29 /// SNORD31 / Fold change vs veh, SNHG1 /// SNORD22 /// SNORD25 /// SNORD26 /// SNORD27 /// SNORD28 /// SNORD29 /// SNORD31 / Fold change (Aza/veh), C12orf56 (ProbeSet 11735607_a_at) / Fold change (ACY-1035/veh), C12orf56 (ProbeSet 11735607_a_at) / Fold change (Aza/veh), FGFR1OP (ProbeSet 11751329_s_at) / Fold change (ACY-1035/veh), FGFR1OP (ProbeSet 11751329_s_at) / Fold change (Aza/veh), VPS36 (ProbeSet 11739960_a_at) / Fold change (ACY-1035/veh), VPS36 (ProbeSet 11739960_a_at) / RFU SYPL1 (11715823_x_at) / Fold change /veh SYPL1 (11715823_x_at) / RFU IGFBP7 (11715501_s_at) / Fold change /veh IGFBP7 (11715501_s_at) / RFU REEP3 (11722064_at) / Fold change /veh REEP3 (11722064_at) / RFU IGLL1 (11728026_x_at) / Fold change /veh IGLL1 (11728026_x_at): dose or concentration left out as unconfirmed
Conditions: ProbeSet 11744854_x_at; LIST B

Question: Which “RFU, ZNF28” value does the source give for `Nc1ccc(-c2cccs2)cc1NC(=O)c1ccc2c(c1)cc(C1CC1)n2CCN1CCOCC1` [ACY-1035] here?
Answer: The value was 57.08 RFU.
